Experimental findings from US7943795B2, “Vitamin D receptor modulators” (Eli Lilly and Company, priority 2004, dated 2011) are described below.

Some results are limits rather than exact numbers.

Assay [1] concerns KERtr cells (Human skin keratinocyte). Description: Keratinocyte proliferation assay. To be noted: 72 hr, BrdU incorporation, read-out: Keranocyte Proliferation IC50. Format: cell-based. As for the experimental part: 6. The keratinocyte proliferation assay is described in the “Assay” section of the Description, infra.
The Keratinocyte Proliferation Assay
This Assay is indicative for the treatment of psoriasis. An acceptable test result is IC50 value of less than or equal to 300 nM. Preferred assay results are IC50 values of less than 100 nM.
KERtr cells (Human skin keratinocyte are transformed with a retrovirus vector, obtained from ATCC, then are plated in 96-well flat-bottomed plates (3000 cells/well) in 100 μl keratinocyte serum free medium supplemented with bovine pituitary extract in the absence of EGF (Life Technologies, Rockville, Md.) and are incubated at 37° C. for two days. The cells are treated with various concentrations of VDR ligands (ten-fold serial dilution from 10,000 nM to 0.1 nM in triplicate), dissolved in 100 μl keratinocyte serum free medium supplemented with bovine pituitary extract in the absence of EGF and are incubated at 37° C. for 72 hr. BrdU (5-bromo-2′-deoxyuridine) incorporation is analyzed as a measure of DNA replication (Cell proliferation ELISA kit, Roche Diagnostics, Indianapolis, Ind.) and absorbance is measured at […]. Potency values (IC50) values were determined as the concentration (nM) of compound that elicited a half-maximal response.
For orientation: Uptake of a labelled nucleoside into DNA is a usual measure of proliferation.

For assay [2], the system named is IL-10 production in PBMCs. Description: IL-10 induction assay. Format: cell-based. To be noted: PBMC; TPA/PHA stimulated human PBMCs, IL-10 in supernatant by immunoassay. An excerpt: 7. The IL-10 induction assay is described in the “Assay” section of the Description, infra.
The IL-10 Induction Assay
This is an in vitro efficacy assay for psoriasis, abscess and adhesion. Psoriasis involves both keratinocytes and immune cells. IL-10 is a unique cytokine because it is anti-inflammatory and immunosuppressive. This assay tells us whether a VDRM is able to function as an agonist in PBMCs (primary blood mononuclear cells) or not. A lower EC50 value is desirable in this assay since a compound with a lower EC50 value will be a better agonist in PBMCs. An acceptable test result is an EC50 value of less than 200 nM. Preferred assay results are EC50 values of less than 100 nM.
Isolation of Peripheral Blood Mononuclear Cells (PBMCs):
Collect 50 ml of human blood and dilute with media, RPMI-1640. Add diluted blood to sterile tubes with ficol. Centrifuge the tubes. Discard the top layer and collect the cells from middle layer. Divide all cells into four tubes and add media. Centrifuge. Aspirate off media and resuspend the cells. Collect all cells. Centrifuge at 1200 rpm for 10 m. Resuspend the cells in RPMI-1640 with 2% FBS and then count cells.
Stimulation of PBMC: Prepare TPA in DMSO. Dissolve PHA in water. Plate TPA/PHA treated PBMCs in well plates. Incubate the cells.
Treatment: Prepare all compound dilutions in plain RPMI-1640 media. Add diluted compound and incubate. Sample Collection and assay: Remove all the cells by centrifugation and assay the supernatant for IL-10 by immunoassay using anti-human IL-10 antibody coated beads, as described by the manufacturer (Linco Research Inc., St. Charles, Mo.).

In the case of `CCC(CC)(c1ccc(OCC(=O)C(C)(C)C)c(C)c1)c1ccc2cc(C(=O)O)ccc2c1` [Ex. 1, 6-{1-[4-(3,3-dimethyl-2-oxobutoxy)-3-methylphenyl]-1-ethylpropyl}naphthalene-2-carboxylic acid], the IC50 in assay [1] is 653 nM; in assay [2] it was 76 nM. As for `CCC(CC)(c1ccc(OCC(=O)C(C)(C)C)c(C)c1)c1ccc2cc(C(=O)NCC(=O)O)ccc2c1` [Ex. 3, [(6-{1-[4-(3,3-Dimethyl-2-oxo-butoxy)-3-methylphenyl]-1-ethylpropyl}naphthalene-2-carbonyl)amino]acetic acid], the IC50 in assay [1] came to 2 nM. For `CCC(CC)(c1ccc(OCC(=O)C(C)(C)C)c(C)c1)c1ccc2cc(C(=O)N(C)C)ccc2c1` [Ex. 4, 6-{1-[4-(3,3-dimethyl-2-oxobutoxy)-3-methylphenyl]-1-ethylpropyl}naphthalene-2-carboxylic acid dimethylamide], the IC50 in assay [1] was more than 1000 nM. Regarding `CCC(CC)(c1ccc(OCC(=O)C(C)(C)C)c(C)c1)c1ccc2cc(C(=O)N(C)CC(=O)O)ccc2c1` [Ex. 5, [(6-{1-[4-(3,3-Dimethyl-2-oxobutoxy)-3-methylphenyl]-1-ethylpropyl}naphthalene-2-carbonyl)methylamino]acetic acid], the IC50 in assay [1] amounted to 24 nM; in assay [2] it was 5 nM.
